Experimental data reported in PubChem BioAssay AID1264 (University of Pittsburgh Molecular Library Screening Center, 2008).
Where “and” joins values, the source holds several entries; their conditions need not be identical. Equal values may be shown once. Calls of active or inactive are those of the source.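 Rule for the calls: active = every replicate of triplicate confirmation testing shows 50% or greater inhibition; inconclusive = one or more replicate tests show below 50% inhibition; inactive = every triplicate test shows below 50% inhibition.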

These compounds were tested against Serine/threonine-protein kinase PLK1 (Homo sapiens) (UniProt P53350) (assay: PLK1 kinase activity inhibitors, confirmation, biochemical, analogue series, repeat of primary screen (AID 1264)). Details: recombinant PLK1 kinase, TR-FRET phosphopeptide binding; at 10 µM; active compounds read high.
Serine/threonine-protein kinase PLK1 (Homo sapiens), sequence (P53350 whole entry, looked up): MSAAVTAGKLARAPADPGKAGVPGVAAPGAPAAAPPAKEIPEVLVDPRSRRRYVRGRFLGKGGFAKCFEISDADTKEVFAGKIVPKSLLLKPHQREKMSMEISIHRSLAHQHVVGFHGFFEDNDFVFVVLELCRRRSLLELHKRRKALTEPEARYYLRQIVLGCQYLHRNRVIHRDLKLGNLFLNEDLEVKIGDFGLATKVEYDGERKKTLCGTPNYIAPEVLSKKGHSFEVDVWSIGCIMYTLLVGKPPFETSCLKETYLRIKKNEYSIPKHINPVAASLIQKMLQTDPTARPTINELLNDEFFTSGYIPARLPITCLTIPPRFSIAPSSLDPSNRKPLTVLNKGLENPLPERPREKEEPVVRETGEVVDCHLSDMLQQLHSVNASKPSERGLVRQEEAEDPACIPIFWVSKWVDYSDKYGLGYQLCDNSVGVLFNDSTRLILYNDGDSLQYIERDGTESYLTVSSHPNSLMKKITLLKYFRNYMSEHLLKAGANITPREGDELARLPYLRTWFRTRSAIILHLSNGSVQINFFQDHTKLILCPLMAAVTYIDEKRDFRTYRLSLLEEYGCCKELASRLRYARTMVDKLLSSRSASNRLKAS

Structure (SMILES)	inhibition
CCOC(=O)CCCCCNC(=O)c1ccc(F)cc1F	-1.76% (inactive)
CCOc1ccc(NC(=O)c2c(N)n(C)c(=O)[nH]c2=O)cc1	-9.99% (inactive)
O=C(Nc1ccccc1)c1c(O)[nH]c(=O)[nH]c1=O	0.179% (inactive)
CC1=CC(c2ccccc2)n2nc(N)nc2N1 (stereo unspecified)	-13.7% (inactive)
CC1=CC(c2ccccc2)n2ncnc2N1 (stereo unspecified)	26% (inactive)
CC(C)C(=O)NCCc1nc(-c2ccccc2)no1	-10.1% (inactive)
Cc1ccc(C2=CC(c3ccccc3)n3ncnc3N2)c(C)c1 (stereo unspecified)	-6.91% (inactive)
CCCC(=O)NC(C)c1nc(-c2ccc(C)cc2)no1 (stereo unspecified)	-6.32% (inactive)
CCOC(=O)c1cccc(NC(=O)c2c(NCc3ccccc3)[nH]c(=O)[nH]c2=O)c1	-25.1% (inactive)
CC(C)(C)c1ccc(C2=CC(c3ccccc3)n3ncnc3N2)cc1 (stereo unspecified)	-7.88% (inactive)
Cc1cc(=O)n2[nH]cnc2n1	19.1% (inactive)
O=C(Nc1ccccc1)c1c(O)[nH]c(=S)[nH]c1=O	14.3% (inactive)
CCOC(=O)c1ccc(NC(=O)c2c(N)n(C)c(=O)n(C)c2=O)cc1	-20.8% (inactive)
O=C(NCCc1nc(-c2ccccc2)no1)c1ccco1	-16.1% (inactive)
CCOC(=O)c1ccc(NC(=O)c2c(N)n(C)c(=O)[nH]c2=O)cc1	-19.2% (inactive)
Cc1cc(C)c(C2=CC(c3ccccc3)n3ncnc3N2)cc1C (stereo unspecified)	-3.17% (inactive)
Cc1ccc(C2C=C(c3ccccc3)Nc3ncnn32)cc1 (stereo unspecified)	-8.59% (inactive)
CCOC(=O)c1ccc(NC(=O)c2c(N)n(Cc3ccccc3)c(=O)[nH]c2=O)cc1	-23.9% (inactive)
CCCCOC(=O)c1ccc(NC(=O)c2c(N)n(C)c(=O)[nH]c2=O)cc1	-5.01% (inactive)
CCOC(=O)c1ccc(NC(=O)c2c(O)[nH]c(=O)[nH]c2=O)cc1	-4.9% (inactive)
Cc1cccc(N/N=C/c2c(O)[nH]c(=S)[nH]c2=O)c1	-7.37% (inactive)

Structure (SMILES)	inhibition
CCOC(=O)c1ccccc1NC(=O)c1c(O)[nH]c(=S)[nH]c1=O	19.1% (inactive)
CCOc1ccc(NC(=O)c2ccc(F)cc2F)cc1	-2.77% (inactive)
CC(C)C(=O)NCCc1nc(-c2ccccc2Cl)no1	-5.05% (inactive)
C/C(=N\NC(=O)c1ccncc1)c1c(O)[nH]c(=O)[nH]c1=O	-1.95% (inactive)
COc1ccc(C2C=C(c3ccccc3)Nc3ncnn32)cc1 (stereo unspecified)	-8.01% (inactive)
O=C(Nc1ccccc1)c1ccc(F)cc1F	24.9% (inactive)
CCOc1ccc(C2=CC(c3ccccc3)n3ncnc3N2)cc1 (stereo unspecified)	-6.38% (inactive)
Cc1ccc(NC(=O)c2ccc(F)cc2F)cc1	0.531% (inactive)
CCOC(=O)c1ccccc1NC(=O)c1ccc(F)cc1F	-4.35% (inactive)
CCOC(=O)c1ccc(NS(=O)(=O)c2c(N)n(C)c(=O)n(C)c2=O)cc1	-7.36% (inactive)
C1=C(c2ccccc2)Nc2ncnn2C1	12.8% (inactive)
O=C(NCCc1nc(-c2ccccc2Cl)no1)c1ccccc1	-12.8% (inactive)
FC(F)(F)c1ccccc1C1=CC(c2ccccc2)n2ncnc2N1 (stereo unspecified)	-2.08% (inactive)
CCOC(=O)c1cccc(NC(=O)c2ccc(F)cc2F)c1	-1.61% (inactive)
CCC(=O)NCCCc1nc(-c2ccccc2)no1	-3.38% (inactive)
Cn1cccc1C1C=C(c2ccc(C(C)(C)C)cc2)Nc2ncnn21 (stereo unspecified)	-5.07% (inactive)
CCC1=CC(c2ccccc2)n2ncnc2N1 (stereo unspecified)	27.4% (inactive)
CCOC(=O)c1ccccc1NC(=O)c1c(O)[nH]c(=O)[nH]c1=O	-7.12% (inactive)
CCC(=O)NCCc1nc(-c2ccccc2)no1	-12.8% (inactive)
CC(=O)NCCc1nc(-c2ccc(Cl)cc2)no1	0.952% (inactive)
COc1ccc(C2C=C(C)Nc3ncnn32)cc1 (stereo unspecified)	5.53% (inactive)

Structure (SMILES)	inhibition
C1=C(c2ccccc2)Nc2ncnn2C1c1ccccc1 (stereo unspecified)	-5.72% (inactive) and -12.8% (inactive)
O=C(NCCc1nc(-c2ccccc2)no1)c1ccccc1	-5.02% (inactive)
CCOC(=O)c1cccc(NC(=O)c2c(O)[nH]c(=O)[nH]c2=O)c1	-17.6% (inactive)
CCOC(=O)c1ccc(NC(=O)c2c(NCc3ccccc3)[nH]c(=O)[nH]c2=O)cc1	-44% (inactive)
Cn1c(N)c(C(=O)Nc2ccccc2)c(=O)[nH]c1=O	8.78% (inactive)
Cc1ccc(C2=CC(c3ccccc3)n3ncnc3N2)cc1 (stereo unspecified)	-16.9% (inactive)
CCCCOC(=O)c1ccc(NC(=O)c2c(O)[nH]c(=O)[nH]c2=O)cc1	13.1% (inactive)
CC(C)(C)C(=O)NCCc1nc(-c2ccccc2)no1	0.116% (inactive)
CCOC(=O)c1ccccc1NC(=O)c1c(N)n(C)c(=O)[nH]c1=O	-3.12% (inactive)
CCOC(=O)c1cccc(NC(=O)c2c(N)n(C)c(=O)[nH]c2=O)c1	-1.45% (inactive)
CCCCOC(=O)c1ccc(NC(=O)c2ccc(F)cc2F)cc1	-1.8% (inactive)
Cc1ccc(C2=CC(c3ccc(C)cc3)n3ncnc3N2)cc1 (stereo unspecified)	-1.39% (inactive)
CCOC(=O)CCCCCNC(=O)c1c(O)[nH]c(=O)[nH]c1=O	-9.36% (inactive)
Cn1c(N)c(S(=O)(=O)NCc2ccccc2)c(=O)n(C)c1=O	-15.5% (inactive)
O=C(NCCc1nc(-c2ccccc2Cl)no1)C1CCCCC1	-35.6% (inactive)
CC(C)C(=O)NCCc1nc(-c2ccc(Cl)cc2)no1	-14.7% (inactive)
CCOc1ccc(NC(=O)c2c(O)[nH]c(=O)[nH]c2=O)cc1	4.03% (inactive)
CCOC(=O)c1ccc(NC(=O)c2ccc(F)cc2F)cc1	4.42% (inactive)
CC(C)(C)c1ccc(C2=CC(c3ccccc3F)n3ncnc3N2)cc1 (stereo unspecified)	-3.46% (inactive)
